Test results published in BigSolDB 2.1.

For `Cc1nc(N)nc(N)n1`, the solubility (mole fraction) (in 1,4-dioxane, 283.15 K) was 0.000584, the solubility (mole fraction) (in 1,4-dioxane, 288.15 K) was 0.000676 and the solubility (mole fraction) (in 1,4-dioxane, 293.15 K) was 0.000782. For the same compound, the solubility (mole fraction) (in 1,4-dioxane, 298.15 K) was 0.000899, the solubility (mole fraction) (in 1,4-dioxane, 303.15 K) was 0.00107 and the solubility (mole fraction) (in 1,4-dioxane, 308.15 K) was 0.00126. The solubility (mole fraction) (in 1,4-dioxane, 313.15 K) was 0.00152, the solubility (mole fraction) (in 1,4-dioxane, 318.15 K) was 0.00177 and the solubility (mole fraction) (in 1,4-dioxane, 323.15 K) was 0.00205. It also gave a solubility (mole fraction) (in DMF, 283.15 K) of 0.00103, a solubility (mole fraction) (in DMF, 288.15 K) of 0.0012 and a solubility (mole fraction) (in DMF, 293.15 K) of 0.00133. It also gave a solubility (mole fraction) (in DMF, 298.15 K) of 0.00151, a solubility (mole fraction) (in DMF, 303.15 K) of 0.0018 and a solubility (mole fraction) (in DMF, 308.15 K) of 0.00209. For the same compound, the solubility (mole fraction) (in DMF, 313.15 K) was 0.00247, the solubility (mole fraction) (in DMF, 318.15 K) was 0.00283 and the solubility (mole fraction) (in DMF, 323.15 K) was 0.00325. It also gave a solubility (mole fraction) (in acetonitrile, 283.15 K) of 9.52e-05, a solubility (mole fraction) (in acetonitrile, 288.15 K) of 0.000117 and a solubility (mole fraction) (in acetonitrile, 293.15 K) of 0.000141. It also gave a solubility (mole fraction) (in acetonitrile, 298.15 K) of 0.00018, a solubility (mole fraction) (in acetonitrile, 303.15 K) of 0.000228 and a solubility (mole fraction) (in acetonitrile, 308.15 K) of 0.000287. For the same compound, the solubility (mole fraction) (in acetonitrile, 313.15 K) was 0.000345, the solubility (mole fraction) (in acetonitrile, 318.15 K) was 0.000426 and the solubility (mole fraction) (in acetonitrile, 323.15 K) was 0.000523. It also gave a solubility (mole fraction) (in ethanol, 283.15 K) of 0.000226, a solubility (mole fraction) (in ethanol, 288.15 K) of 0.000258 and a solubility (mole fraction) (in ethanol, 293.15 K) of 0.000315. It also gave a solubility (mole fraction) (in ethanol, 298.15 K) of 0.000386, a solubility (mole fraction) (in ethanol, 303.15 K) of 0.000485 and a solubility (mole fraction) (in ethanol, 308.15 K) of 0.000592. The solubility (mole fraction) (in ethanol, 313.15 K) was 0.000688, the solubility (mole fraction) (in ethanol, 318.15 K) was 0.000845 and the solubility (mole fraction) (in ethanol, 323.15 K) was 0.000999. For the same compound, the solubility (mole fraction) (in ethyl acetate, 283.15 K) was 0.000671, the solubility (mole fraction) (in ethyl acetate, 288.15 K) was 0.00078 and the solubility (mole fraction) (in ethyl acetate, 293.15 K) was 0.000928. For the same compound, the solubility (mole fraction) (in ethyl acetate, 298.15 K) was 0.00104, the solubility (mole fraction) (in ethyl acetate, 303.15 K) was 0.00125 and the solubility (mole fraction) (in ethyl acetate, 308.15 K) was 0.00142. For the same compound, the solubility (mole fraction) (in ethyl acetate, 313.15 K) was 0.00171, the solubility (mole fraction) (in ethyl acetate, 318.15 K) was 0.00198 and the solubility (mole fraction) (in ethyl acetate, 323.15 K) was 0.00229. It also gave a solubility (mole fraction) (in ethylene glycol, 283.15 K) of 0.000797, a solubility (mole fraction) (in ethylene glycol, 288.15 K) of 0.000935 and a solubility (mole fraction) (in ethylene glycol, 293.15 K) of 0.00109. It also gave a solubility (mole fraction) (in ethylene glycol, 298.15 K) of 0.00121, a solubility (mole fraction) (in ethylene glycol, 303.15 K) of 0.00145 and a solubility (mole fraction) (in ethylene glycol, 308.15 K) of 0.00164. It also gave a solubility (mole fraction) (in ethylene glycol, 313.15 K) of 0.00193, a solubility (mole fraction) (in ethylene glycol, 318.15 K) of 0.00225 and a solubility (mole fraction) (in ethylene glycol, 323.15 K) of 0.00259. The solubility (mole fraction) (in isobutanol, 283.15 K) was 0.000392, the solubility (mole fraction) (in isobutanol, 288.15 K) was 0.000454 and the solubility (mole fraction) (in isobutanol, 293.15 K) was 0.000551. For the same compound, the solubility (mole fraction) (in isobutanol, 298.15 K) was 0.000663, the solubility (mole fraction) (in isobutanol, 303.15 K) was 0.000792 and the solubility (mole fraction) (in isobutanol, 308.15 K) was 0.000931. For the same compound, the solubility (mole fraction) (in isobutanol, 313.15 K) was 0.0011, the solubility (mole fraction) (in isobutanol, 318.15 K) was 0.00127 and the solubility (mole fraction) (in isobutanol, 323.15 K) was 0.00153. The solubility (mole fraction) (in isopropanol, 283.15 K) was 0.00027, the solubility (mole fraction) (in isopropanol, 288.15 K) was 0.000325 and the solubility (mole fraction) (in isopropanol, 293.15 K) was 0.000393. For the same compound, the solubility (mole fraction) (in isopropanol, 298.15 K) was 0.00047, the solubility (mole fraction) (in isopropanol, 303.15 K) was 0.000587 and the solubility (mole fraction) (in isopropanol, 308.15 K) was 0.000698. For the same compound, the solubility (mole fraction) (in isopropanol, 313.15 K) was 0.000808, the solubility (mole fraction) (in isopropanol, 318.15 K) was 0.000973 and the solubility (mole fraction) (in isopropanol, 323.15 K) was 0.00115. The solubility (mole fraction) (in methanol, 283.15 K) was 0.000159, the solubility (mole fraction) (in methanol, 288.15 K) was 0.000192 and the solubility (mole fraction) (in methanol, 293.15 K) was 0.000235. It also gave a solubility (mole fraction) (in methanol, 298.15 K) of 0.000289, a solubility (mole fraction) (in methanol, 303.15 K) of 0.000365 and a solubility (mole fraction) (in methanol, 308.15 K) of 0.000434. The solubility (mole fraction) (in methanol, 313.15 K) was 0.000553, the solubility (mole fraction) (in methanol, 318.15 K) was 0.000636 and the solubility (mole fraction) (in methanol, 323.15 K) was 0.000782. For the same compound, the solubility (mole fraction) (in n-butanol, 283.15 K) was 0.000477, the solubility (mole fraction) (in n-butanol, 288.15 K) was 0.000536 and the solubility (mole fraction) (in n-butanol, 293.15 K) was 0.00064. For the same compound, the solubility (mole fraction) (in n-butanol, 298.15 K) was 0.000764, the solubility (mole fraction) (in n-butanol, 303.15 K) was 0.000919 and the solubility (mole fraction) (in n-butanol, 308.15 K) was 0.00111. The solubility (mole fraction) (in n-butanol, 313.15 K) was 0.00131, the solubility (mole fraction) (in n-butanol, 318.15 K) was 0.0015 and the solubility (mole fraction) (in n-butanol, 323.15 K) was 0.00177. The solubility (mole fraction) (in n-propanol, 283.15 K) was 0.000321, the solubility (mole fraction) (in n-propanol, 288.15 K) was 0.000385 and the solubility (mole fraction) (in n-propanol, 293.15 K) was 0.000452. The solubility (mole fraction) (in n-propanol, 298.15 K) was 0.00054, the solubility (mole fraction) (in n-propanol, 303.15 K) was 0.000689 and the solubility (mole fraction) (in n-propanol, 308.15 K) was 0.000836. For the same compound, the solubility (mole fraction) (in n-propanol, 313.15 K) was 0.000985, the solubility (mole fraction) (in n-propanol, 318.15 K) was 0.00115 and the solubility (mole fraction) (in n-propanol, 323.15 K) was 0.00132. It also gave a solubility (mole fraction) (in water, 283.15 K) of 0.000122, a solubility (mole fraction) (in water, 288.15 K) of 0.000146 and a solubility (mole fraction) (in water, 293.15 K) of 0.000182. For the same compound, the solubility (mole fraction) (in water, 298.15 K) was 0.000228, the solubility (mole fraction) (in water, 303.15 K) was 0.000285 and the solubility (mole fraction) (in water, 308.15 K) was 0.000362. It also gave a solubility (mole fraction) (in water, 313.15 K) of 0.000426, a solubility (mole fraction) (in water, 318.15 K) of 0.000521 and a solubility (mole fraction) (in water, 323.15 K) of 0.000633.
